The text below walks through data of patent US7138486B2, “Insulinotropic hormone derivatives and uses thereof” (The General Hospital Corporation, priority 1986, dated 2006).

For one assay, the system named is rat pancreas. The experiment in a line: Pancreatic perfusion assay of insulinotropic activity (effluent insulin). The assay is classed as in vivo. Particulars: for Insulinotropic activity: 10^−11 M, five minute perfusions, FIG. 4; for Insulinotropic activity (perfusate insulin): Table 6; for Mean perfusate insulin concentration: 10^−9 M for 5 minutes.
In assay [1] the test system is RIN 1046-38 cells. The experiment in a line: cAMP formation in insulinoma cell line. In kind it is cell-based, rat. Particulars: for Effect on cAMP levels: 0.5 μM; for Effects on the formation of cAMP: at 5 nM and 50 pM. As for the experimental part:
Cells were grown as described in Example 1, in […] culture dishes. Varying amounts of glucagon-like peptides were added to culture wells in triplicate. […] Twenty microliters from each culture well was assayed.
Insulinotropic activity was monitored as described by Mojsov, S., et al., (J. Clin. Invest. 79:616–619 (1987)) and Drucker, D. J., et al., (Proc. Natl Acad. Sci. 84:3434–3438 (1987)), both of which references are incorporated by reference herein. […]

Assay [2] concerns RIN 1046-38 cells. The experiment in a line: Levels of insulin, actin and angiotensinogen mRNAs by Northern blot densitometry. In kind it is cell-based, rat. The protocol: Rat insulinoma cells of cell line RIN-38 were derived from a continuous islet cell line, RIN-r, which was established from a transplantable rat islet cell tumor (Gazdar, A. F., et al., Proc. Natl. Acad. Sci., USA 77:3519–3523 (1980)). The cells were maintained in DMEM (Gibco) at a glucose concentration of 4,500 mg/L and supplemented with 10% heat-inactivated fetal bovine serum (Gibco), 100 U/ml of penicillin and 100 μg/ml of streptomycin. Incubations were carried out at 37° C. in 95% air:5% CO2. Cells grown in the above manner were washed and resuspended in DMEM (Gibco) containing 0.1% bovine serum albumin and 25 mM glucose. […] Incubations were for six hours.
Messenger RNAs specific for insulin, actin, or angiotensinogen were identified by Northern hybridization as follows: cellular RNA was extracted from solid tumors and cells by homogenization in guanidine thiocyanate and sedimentation through a cesium chloride cushion. Poly A^+ RNA was isolated by oligo dT cellulose chromatography (Aviv, H., et al., Proc. Natl. Acad. Sci., USA 69:1408–1412 (1972)). Twenty micrograms of total RNA from each sample were fractionated by size on a 1.4% agarose gel after denaturation in glyoxal, followed by electrotransfer to a nylon membrane (Nytran; Schleicher and Schuell). Blotted membranes were baked for two hours at 80° C. under vacuum, prehybridized in 1M NaCl/1% SDS/10% Dextran sulfate at 50° C. overnight and hybridized at the same temperature for 24 h after addition of the labeled probes (3–5×10^5 cpm/ml); they were then washed at 55° C. twice in 1×SCC (0.15M NaCl/0.015 M Na citrate)/1% SDS), and exposed to X-ray film for varying times at −70° C. with an intensifying screen. The relative amounts of the specific mRNA were determined by microdensitometry.

A further assay has as its target cellular receptors. Put plainly: cell-based or functional assay.

Where no end group is shown, it is not given here.

Description for rat pancreas: The in situ isolated perfused rat pancreas preparation was a modification of the method of Penhos, J. C., el al. (Diabetes 18:733–738 (1969)). In accordance with such a method, fasted rats (preferably male Charles River strain albino rats), weighing 350–600 g, are anesthetized with an intraperitoneal injection of Amytal Sodium (Eli Lilly and Co., 160 ng/kg). Renal, adrenal, gastric, and lower colonic blood vessels are ligated. The entire intestine is resected except for about four cm of duodenum and the descending colon and rectum. […] The perfusate is preferably a modified Krebs-Ringer bicarbonate buffer with 4% dextran T70 and 0.2% bovine serum albumin (fraction V), and is preferably bubbled with 95% O2 and 5% CO2. A nonpulsatile flow, four-channel roller-bearing pump (Buchler polystatic, Buchler Instruments Division, Nuclear-Chicago Corp.) is preferably used, and a switch from one perfusate source to another is preferably accomplished by switching a three-way stopcock.
Isolated rat pancreas was prepared according to the method of Weir, G. C., et al., (J. Clin. Invest. 54:1403–1412 (1974)), and Penkos, J. C., et al. (Diabetes 18:733–738 (1969)). The perfusate contained bicarbonate buffer (pH 7.4) and 120 mg/dl glucose, 4% dextran T-70, and 0.2% bovine serum albumin, and was equilibrated with 95% oxygen and 5% carbon dioxide. The first 20 minutes of each perfusion was an equilibrium period. After this initial period, aliquots of perfusate were removed every 2–4 min for additional 20 min, thus allowing the system to equilibrate for a total of 40 min. The perfusion, including any added insulinotropic peptide, was for 6 min and samples were collected at 1-min intervals. When more than one perfusion was to be performed, the peptide perfusions were followed by equilibration periods of 20 min, during which four samples 5 min apart were collected. […] Again, samples 1 min apart were collected. The entire perfusion time was between 70 and 85 min.
In each aliquot of perfusate obtained, insulin was determined by radioimmunoassay. […] At one minute intervals, pancreas effluent insulin levels in picograms/ml were determined by radioimmunoassay (as described above).

On to “GLP-1(7-34): derivative of GLP-1(1-37), amino acids 7-34 (HAEGTFTSDVSSYLEGQAAKEFIAWLVK; Glucagon-like peptide 1; UniProt P01275 98-125, looked up, fragment)”, for which, in the assay with rat pancreas, the Insulinotropic activity entry is recorded as “detectable insulinotropic activity”.

“GLP-1(7-35): derivative of GLP-1(1-37), amino acids 7-35 (HAEGTFTSDVSSYLEGQAAKEFIAWLVKG; Glucagon-like peptide 1; UniProt P01275 98-126, looked up, fragment)”: the Insulinotropic activity result with rat pancreas is “detectable insulinotropic activity”.

Take “GLP-1(7-36)-NH2: GLP-1(7-36) with the C-terminal residue, arginine, in amidated form as arginineamide”: the cAMP formation is recorded as 358 ± 32 fmoles/10 ul of cell extract in the assay with RIN 1046-38 cells [1] (IBMX 100 uM, peptide 10^−7 M); 225 ± 16 fmoles/10 ul of cell extract in the assay on RIN 1046-38 cells [1] (IBMX 100 uM, peptide 10^−9 M); 141 ± 5 fmoles/10 ul of cell extract in the assay on RIN 1046-38 cells [1] (IBMX 100 uM, peptide 10^−11 M, 10 minutes, control 161 ± 10); 1676 ± 113 fmoles/10 ul of cell extract in the assay on RIN 1046-38 cells [1] (IBMX 500 uM, peptide 10^−7 M); 1199 ± 41 fmoles/10 ul of cell extract with RIN 1046-38 cells [1] (IBMX 500 uM, peptide 10^−9 M); 446 ± 38 fmoles/10 ul of cell extract in the assay on RIN 1046-38 cells [1] (IBMX 500 uM, peptide 10^−11 M, control 540 ± 22). Moreover, the “Insulinotropic activity (perfusate insulin)” value worked out at 4550 ± 703 in the assay on rat pancreas (time +1 minute); 3330 ± 637 with rat pancreas (time +2 minutes); 2500 ± 564 in the assay on rat pancreas (time +3 minutes); 985 ± 275 with rat pancreas (time −1 minute (before peptide), 5 minute perfusion). Further, in the assay with rat pancreas (perfused rat pancreas), the “Potency as secretagogue, 7-37 form versus 7-36-amide” value is on record as “equally potent secretagogues”.

For the molecule “GLP-1-(1-36)-NH2: GLP-1(1-36 des-gly-arg amide); Peninsula Laboratories (HDEFERHAEGTFTSDVSSYLEGQAAKEFIAWLVKGR-NH2; UniProt P01275 92-127, looked up, fragment)”, the “Actin mRNA level” value with RIN 1046-38 cells [2] (Experiment 1, peptide 5 × 10^−7 M, control 0.68 ± 0.03) was 0.87 ± 0.19 Arbitrary densitometric units. Further, the “Insulin mRNA level” value in the assay with RIN 1046-38 cells [2] (Experiment 1, peptide 5 × 10^−7 M, control 1.28 ± 0.18, mean ± SEM) is 2.78 ± 0.51^4 Arbitrary densitometric units. In addition, the “Angiotensinogen mRNA level” value in the assay with RIN 1046-38 cells [2] (Experiment 1, peptide 5 × 10^−7 M, control 2.67 ± 0.31) is recorded as 2.56 ± 0.22 Arbitrary densitometric units. Further, in the assay with RIN 1046-38 cells [1], the “Effect on cAMP levels” value was “increased cAMP levels” and the “Effects on the formation of cAMP” value is “negligible”. Besides, the cAMP in the assay on RIN 1046-38 cells [1] (Exp. 4, 5 × 10^−7 M, control 41.3 ± 7.1) is 70.2 ± 2.8 (b) fmol.

Turning to “GLP-2: glucagon-like peptide 2, 34 amino acid residues long”, in the assay with RIN 1046-38 cells [2], the “Effects on insulin mRNA levels” value is “no effects”. Besides, in the assay with RIN 1046-38 cells [1] (even at 10^−11 M), the “Stimulation of cAMP levels” value is “neither GLP-1(1-37) nor GLP-2 (GLP-2) exhibited such activity”.

As to “His-Ala-Glu-Gly-Thr-Phe-Thr-Ser-Asp-Val-Ser-Ser-Tyr-Leu-Glu-Gly-Gln-Ala-Ala-Lys-Glu-Phe-Ile-Ala-Trp-Leu-Val-Lys-Gly-Arg (HAEGTFTSDVSSYLEGQAAKEFIAWLVKGR; printed: His-Ala-Glu-Gly-Thr-Phe-Thr-Ser-Asp-Val-Ser-Ser-Tyr-Leu-Glu-Gly-Gln-Ala-Ala-Lys-Glu-Phe-Ile-Ala-Trp-Leu-Val-Lys-Gly-Arg) [GLP-1(7-36), GLP-1 polypeptide having all amino acids from number 7 through number 36]”, in the assay with rat pancreas (10^−11M), the “Insulinotropic activity compared with GLP-1(7-37)” value was “equiavlent to GLP-1(7-37)”.

As for “des-7 histidine GLP-1(7-37) (AEGTFTSDVSSYLEGQAAKEFIAWLVKGRG) [GLP-1 (8-37)]”, the “cAMP formation” value with RIN 1046-38 cells [1] (Table 8, 10^−5 M) is on record as 77 ± 11 f-mole/5 ul of cell extract/15 min exposure to peptide; in the assay with RIN 1046-38 cells [1] (Table 8, 10^−6 M), 31 ± 3 f-mole/5 ul of cell extract/15 min exposure to peptide; with RIN 1046-38 cells [1] (Table 8, 10^−7 M), 24 ± 2 f-mole/5 ul of cell extract/15 min exposure to peptide; in the assay on RIN 1046-38 cells [1] (Table 8, 10^−8 M, no peptide 27 ± 2, mean ± S.E.M.), 28 ± 0.8 f-mole/5 ul of cell extract/15 min exposure to peptide. Besides, in the assay with RIN 1046-38 cells [1] (cAMP formation), the “Insulinotropic activity compared with glucagon” value was “comparable to that of glucagon”. Further, the “Effect on insulin secretion” value in the assay with rat pancreas (perfusate glucose 6.6 mM, 10^−7 M) is listed as “weak insulinotropic activity”; with rat pancreas (perfusate glucose 6.6 mM, 10^−11, 10^−9, or 10^−8 M), “no detectable effect”; in the assay with rat pancreas (perfusate glucose 16.7 mM, 10^−9 M), “no effect”.

Regarding glucagon, in the assay on RIN 1046-38 cells [2], the “Effects on insulin mRNA levels” value is “no effects”. In addition, the “Effect on cAMP levels” value with RIN 1046-38 cells [1] is “increased cAMP levels”. For the same molecule, the cAMP was 20.1 ± 2.5 (a) fmol in the assay with RIN 1046-38 cells [1] (Exp. 1, 5 × 10^−9 M); 16.5 ± 2.0 (NS) fmol in the assay on RIN 1046-38 cells [1] (Exp. 1, 5 × 10^−10 M); 13.2 ± 1.0 (NS) fmol with RIN 1046-38 cells [1] (Exp. 1, 5 × 10^−11 M); 18.7 ± 2.2 (NS) fmol in the assay on RIN 1046-38 cells [1] (Exp. 1, 5 × 10^−12 M, per 1/50th of cell extract per plate, control 15.4 ± 0.7, mean ± SEM); 93.1 ± 2.9 (c) fmol in the assay on RIN 1046-38 cells [1] (Exp. 2, 5 × 10^−7 M); 44.8 ± 1.6 (NS) fmol in the assay on RIN 1046-38 cells [1] (Exp. 2, 5 × 10^−8 M, control 43.6 ± 4.1). In addition, the “cAMP formation” value in the assay on RIN 1046-38 cells [1] (Table 8, 10^−6 M) was 92 ± 9 f-mole/5 ul of cell extract/15 min exposure to peptide. Moreover, the “Effects on the formation of cAMP” value in the assay with RIN 1046-38 cells [1] is “negligible”. Further, the “Mean perfusate insulin concentration” value in the assay on rat pancreas (glucose 6.6 mM, absence of GLP-1 (8-37)) worked out at 4.98 ± 0.96 ng/mL; with rat pancreas (glucose 6.6 mM, presence of 10^−8 M GLP-1 (8-37), N=4), 5.26 ± 0.89 ng/mL. In the assay on rat pancreas (10^−9 M, glucose 6.6 mM), this molecule showed a Peak insulin release of 4.5 ± 0.5 ng/mL. Besides, the Insulin release result in the assay on rat pancreas (10^−11M) is “no release”. Also, the “Concentration at which an insulinotropic effect is still mediated (as low as)” value in the assay on rat pancreas (pancreatic B cell secretagogue) was 10^−9 M.

Take HAEGTFTSDVSSYLEGQAAKEFIAWLVKGRG [glucagon-like peptide-1 (7-37)]: in the assay with cellular receptors, the cAMP level in RIN-38 cells, 10 min, peptide at 10^-6 M (no peptide: 140) is 400; the cAMP level in RIN-38 cells, 10 min, peptide at 10^-7 M (no peptide: 140) was 370; the cAMP level in RIN-38 cells, 10 min, peptide at 10^-8 M (no peptide: 140) is 494; the cAMP level in RIN-38 cells, 10 min, peptide at 10^-9 M (no peptide: 140) was 515. Besides, in the assay with cellular receptors, the cAMP level in RIN-38 cells, 10 min, peptide at 10^-10 M (no peptide: 140) was 253 and the cAMP level in RIN-38 cells, 10 min, peptide at 10^-11 M (no peptide: 140) amounted to 533.

Consider HDEFERHAEGTFTSDVSSYLEGQAAKEFIAWLVKGRG [glucagon-like peptide-1 (1-37)], for which, in the assay with cellular receptors, the cAMP level in RIN-38 cells, 10 min, peptide at 10^-6 M (no peptide: 91) is 170; the cAMP level in RIN-38 cells, 10 min, peptide at 10^-7 M (no peptide: 91) came to 120; the cAMP level in RIN-38 cells, 10 min, peptide at 10^-8 M (no peptide: 91) worked out at 160; the cAMP level in RIN-38 cells, 10 min, peptide at 10^-9 M (no peptide: 91) was 100. In the assay with cellular receptors, this molecule came in with a cAMP level in RIN-38 cells, 10 min, peptide at 10^-10 M (no peptide: 91) of 90 and a cAMP level in RIN-38 cells, 10 min, peptide at 10^-11 M (no peptide: 91) of 90.
